Test results published in PubChem BioAssay AID248 (DTP/NCI, 2004).
Several values for one entry are separate records, joined by “and”; a condition that tells them apart may be missing. Identical values can stand only once. Inconclusive results and toxic doses are left out.

Tested on: L1210 leukemia ip in BDF1 mice, survival T/C
Test: NCI In Vivo Anticancer Drug Screen. Data for tumor model L1210 Leukemia (intraperitoneal) in B6D2F1 (BDF1) mice
Conditions: endpoint: mean survival time, higher = longer survival
Method in brief: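 Ratio derived from survival: compound-dosed mice over vehicle-dosed mice, all bearing a transplantable tumor.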

Q: O=C1CC(c2ccc(Cl)cc2)C(=O)O1 (stereo unspecified) was tested. Which T/C (dose: 100.0 mg/kg/injection, schedule: Q01DX001 (ip), vehicle: acetone) did it give?
A: The T/C was 98 % of control.

Q: What about the T/C (dose: 100.0 mg/kg/injection, schedule: Q04DX003 (ip), vehicle: alcohol) of the same compound?
A: The T/C was 98 % of control.

Q: What about the T/C (dose: 200.0 mg/kg/injection, schedule: Q01DX001 (ip), vehicle: acetone) of the same compound?
A: The T/C was 101 % of control.

Q: And the T/C (dose: 200.0 mg/kg/injection, schedule: Q04DX003 (ip), vehicle: alcohol)?
A: The T/C was 104 % of control.

Q: What about the T/C (dose: 400.0 mg/kg/injection, schedule: Q01DX001 (ip), vehicle: acetone) of the same compound?
A: Its T/C is 94 % of control.

Q: What does the source list for COC1OC(CCl)C(Cl)C(OS(=O)(=O)c2ccc(C)cc2)C1OS(=O)(=O)c1ccc(C)cc1 (stereo unspecified)?
A: T/C (dose: 100.0 mg/kg/injection, schedule: Q04DX002 (ip), vehicle: Klucel (hydroxypropylcellulose) (HPC)): 100 % of control; T/C (dose: 100.0 mg/kg/injection, schedule: Q04DX002 (ip), vehicle: saline with Tween-80): 90 % of control; T/C (dose: 200.0 mg/kg/injection, schedule: Q04DX002 (ip), vehicle: saline with Tween-80): 101 % of control; T/C (dose: 400.0 mg/kg/injection, schedule: Q04DX002 (ip), vehicle: Klucel (hydroxypropylcellulose) (HPC)): 94 % of control; T/C (dose: 400.0 mg/kg/injection, schedule: Q04DX002 (ip), vehicle: saline with Tween-80): 93 % of control

Q: For C[N+]1(N)CCCCCC1, which T/C (dose: 100.0 mg/kg/injection, schedule: Q04DX002 (ip), vehicle: saline) is on record?
A: Its T/C is 94 % of control.

Q: And the T/C (dose: 200.0 mg/kg/injection, schedule: Q04DX002 (ip), vehicle: saline)?
A: Its T/C is 113 % of control.

Q: What about the T/C (dose: 400.0 mg/kg/injection, schedule: Q04DX002 (ip), vehicle: saline) of the same compound?
A: Its T/C is 87 % of control.

Q: Which results are given for CCOC(=O)C(NC=O)C(=O)OCC?
A: T/C (dose: 25.0 mg/kg/injection, schedule: Q01DX009 (ip), vehicle: saline): 101 % of control; T/C (dose: 50.0 mg/kg/injection, schedule: Q01DX009 (ip), vehicle: saline): 101 % of control; T/C (dose: 100.0 mg/kg/injection, schedule: Q01DX009 (ip), vehicle: saline): 101 % of control; T/C (dose: 200.0 mg/kg/injection, schedule: Q01DX009 (ip), vehicle: saline): 103 % of control; T/C (dose: 400.0 mg/kg/injection, schedule: Q01DX009 (ip), vehicle: saline): 98 % of control

Q: Which results are given for CC1CN1P(=S)(N1CC1C)N1CC1C (stereo unspecified)?
A: T/C (dose: 2.5 mg/kg/injection, schedule: Q01DX Z (ip), vehicle: saline): 92 % of control; T/C (dose: 3.75 mg/kg/injection, schedule: Q01DX015 (ip), vehicle: saline): 104 % of control; T/C (dose: 5.0 mg/kg/injection, schedule: Q01DX Z (ip), vehicle: saline): 95 % of control; T/C (dose: 6.0 mg/kg/injection, schedule: Q01DX001 (ip), vehicle: saline): 100 % of control; T/C (dose: 7.5 mg/kg/injection, schedule: Q01DX015 (ip), vehicle: saline): 110 % of control; T/C (dose: 10.0 mg/kg/injection, schedule: Q01DX Z (ip), vehicle: saline): 98 % of control; T/C (dose: 12.0 mg/kg/injection, schedule: Q01DX001 (ip), vehicle: saline): 113 % of control; T/C (dose: 12.0 mg/kg/injection, schedule: Q01DX015 (ip), vehicle: saline): 107 % of control; T/C (dose: 20.0 mg/kg/injection, schedule: Q01DX Z (ip), vehicle: saline): 101 % of control; T/C (dose: 24.0 mg/kg/injection, schedule: Q01DX001 (ip), vehicle: saline): 104 % of control; T/C (dose: 48.0 mg/kg/injection, schedule: Q01DX001 (ip), vehicle: saline): 108 % of control; T/C (dose: 48.0 mg/kg/injection, schedule: Q01DX015 (ip), vehicle: saline): 164 % of control; T/C (dose: 50.0 mg/kg/injection, schedule: Q01DX001 (ip), vehicle: saline): 108 % of control; T/C (dose: 60.0 mg/kg/injection, schedule: Q01DX015 (ip), vehicle: saline): 102 % of control; T/C (dose: 72.0 mg/kg/injection, schedule: Q01DX Z (ip), vehicle: saline): 117 % of control; T/C (dose: 96.0 mg/kg/injection, schedule: Q01DX015 (ip), vehicle: saline): 97 % of control; T/C (dose: 96.0 mg/kg/injection, schedule: Q01DX Z (ip), vehicle: saline): 90 % of control; T/C (dose: 144.0 mg/kg/injection, schedule: Q01DX001 (ip), vehicle: saline): 152 % of control and 153 % of control; T/C (dose: 200.0 mg/kg/injection, schedule: Q01DX001 (ip), vehicle: saline): 112 % of control; T/C (dose: 216.0 mg/kg/injection, schedule: Q01DX001 (ip), vehicle: saline): 107 % of control

Q: How did the T/C (dose: 75.0 mg/kg/injection, schedule: Q01DX001 (ip), vehicle: carboxymethylcellulose (CMC)) turn out when CCCCCCCCCC(=O)N1CCC(CCCc2ccccc2)CC1 was run?
A: The T/C was 95 % of control.

Q: And the T/C (dose: 150.0 mg/kg/injection, schedule: Q01DX001 (ip), vehicle: carboxymethylcellulose (CMC))?
A: Its T/C is 92 % of control.

Q: What about the T/C (dose: 300.0 mg/kg/injection, schedule: Q01DX001 (ip), vehicle: carboxymethylcellulose (CMC)) of the same compound?
A: The T/C was 95 % of control.
